Consider six compounds from patent US10413518B2, “CYP450 lipid metabolites reduce inflammation and angiogenesis” (Massachusetts Eye and Ear Infirmary, priority 2013, dated 2019).

Assay [1] has as its system CD18. Put plainly: Flow cytometric analysis of CD18 on PBLs. In kind it is in vivo, mice. The settings on record: metabolite administered, laser-induced CNV model. As for the experimental part: (§1) Isolation of PBLs for flow cytometric analysis. Blood freshly collected from the mouse heart with an EDTA-treated syringe was incubated for 30 min on ice with phycoerythrin-conjugated rat monoclonal antibodies to CD11b (M1/70, BD Biosciences) or to CD18 (C71/16, BD Biosciences), or with isotype control antibodies, at a ratio of 1 μg per 1×10^6 total cells. Red blood cells were lysed with the use of Easy-Lyse (Leinco Technologies), and the remaining cells were isolated by centrifugation and resuspended in PBS on ice for immediate flow cytometric analysis. PBLs were gated according to their characteristic forward and side scatter with the use of a Cytomics FC500 instrument (Beckman Coulter), and data were analyzed with FlowJo 10.0 software […].
(A flow cytometer gives signals particle by particle.)

The subject of assay [2] is laser-induced CNV. Kind of assay: Laser-induced CNV, lesion size in choroidal flat-mounts stained with isolectin B4. The assay is classed as in vivo, mice. As to conditions: 7 days after CNV induction; for Protection from laser-induced CNV (choroidal flatmount): intraperitoneal daily, 5 or 50 μg/kg/day, vs vehicle. On the procedure:
(§2) Laser-induced model of CNV. Laser photocoagulation was performed 2 weeks after the onset of feeding with the ω-3 or ω-6 LCPUFA diets with the use of a 532-nm laser (Oculight GLx Laser System, IRIDEX) attached to a slitlamp, with a coverslip being used to applanate the cornea in order to afford a view of the posterior pole of the eye. Four lesions located at the 3, 6, 9, and 12 o'clock meridians centered on the optic nerve (size and leakage studies) or 10 lesions (protein and mRNA analysis) were induced in both eyes with the same settings: spot size of 100 μm, pulse duration of 0.1 s, and laser power of 100 mW.^25 The lesions were located two or three disc diameters from the optic nerve. Laser-induced disruption of Bruch's membrane was identified by the appearance of a bubble at the site of photocoagulation. […] One investigator executed all laser photocoagulation.
Choroid flat-mount preparation. For evaluation of the size of CNV lesions, mice were anesthetized with Avertin (Sigma) and sacrificed by cervical dislocation at 5 or 7 days after laser photocoagulation. The eyes were removed and fixed in 4% paraformaldehyde for 60 min at room temperature, the cornea and lens were removed, and the entire retina was carefully dissected from the eyecup. Radial cuts (average, eight) were made from the edge of the eyecup to the equator, and the preparation was then washed with ice-cold PBS containing 0.3% Tween 20.^41 For visualization of vessels, the eyecup was stained overnight at room temperature with Alexa Fluor 488—conjugated Griffonia (Bandeiraea) simplicifolia isolectin B4 (Invitrogen) at a dilution of 1:100. The eyecup was flat-mounted on Superfrost/Plus microscope slides (Fisher) in SlowFade Antifade reagent (Invitrogen) with the sclera facing down and the choroid facing up. Fluorescence images of choroidal flat-mounts were captured with a Zeiss AxioCam MRm camera and Zeiss AxioObserver.Z1 microscope. The CNV area was measured with the use of Image J software.

Assay [3] concerns peripheral blood leukocytes (PBLs) on P-selectin and ICAM-1. Kind of assay: Autoperfused microflow chamber assay, chamber coated with P-selectin and ICAM-1. In kind it is in vivo. The settings on record: metabolite administered to mice with laser-induced CNV; for Leucocyte rolling: FIGS. 9A-D. On the procedure:
Autoperfused microflow chamber assay. Leukocyte rolling velocity was analyzed using the autoperfused microflow chamber assay.^33,43 In brief, translucent microchambers (0.4×0.04×50 mm; VitroCom) were coated overnight at 4° C. with either recombinant murine P-selectin, or combination P-selectin and ICAM1 (R&D Systems) at a concentration of 5 μg/ml each. The microchambers were then connected at both ends to biocompatible polyester tubing (PE10, Becton Dickinson). Thereafter, both the tubing and microchamber were incubated with 0.1% bovine serum albumin (Sigma-Aldrich) for 1 h to block nonspecific leukocyte interaction with their inner surfaces. The free ends of the tubing were then connected microsurgically to the right carotid artery and left jugular vein of an anesthetized mouse. In this system, blood flows from the carotid artery into the biocompatible inlet tubing, passes through the microchamber, and reenters the animal's body via the outlet tubing and jugular vein. The rate of blood flow is regulated by adjustment of the diameter of the inlet tubing with a screw valve. Microtransducers (Harvard Apparatus) attached to the chamber by three-way connectors embedded before and after the microchamber allow the continuous measurement of blood pressure. The analog output of the microtransducers unit was digitalized with an A/D converter (ML785 PowerLab/8SP, ADInstruments) connected to a PC computer running CHART V7 software (ADInstruments). The measured values at the inlet and outlet of the microchamber were used to calculate the pressure drop (ΔP). […] Ten different fields of view were recorded for at least 30 seconds. Leukocyte rolling velocity was determined from the displacement of individual cells interacting with the chamber surface over time (Δd/Δt). The displacement of leukocytes was determined using image J software 1.46 (NIH). Flux was defined as the number of interacting leukocytes per field of view, averaged over 10 independent field of views. To account for the hemodynamic conditions within the chamber, the blood pressure before the inlet and after the outlet of the chamber was measured, from which the drop of pressure Δp and the shear stress were derived

Assay [4] deals with laser-induced CNV. Kind of assay: Laser-induced CNV, vascular leakage by fluorescein angiography. In kind it is in vivo, mice. The settings on record: 7 days after CNV induction; for Vascular leakage after CNV induction: intraperitoneal daily, 5 or 50 μg/kg/day, vs vehicle. As for the experimental part:
as §2
Fluorescein angiography. Fluorescein angiography was performed with a camera and imaging system (TRC 50 VT camera and IMAGEnet 1.53 system,
Topcon) at 5 and 7 days after laser photocoagulation. Photographs were captured with a 20-diopter lens in contact with the fundus camera lens after intraperitoneal injection of 0.1 ml of 2% fluorescein sodium (Akorn). […] Lesions were graded according to a previously established scheme as follows: 0 (not leaky), faint hyperfluorescence or mottled fluorescence without leakage; 1 (questionable leakage), hyperfluorescent lesion without progressive increase in size or intensity; 2A (leaky), hyperfluorescence increasing in intensity but not in size; 2B (clinically significant leakage), hyperfluorescence increasing in intensity and in size.^42

In assay [5] the test system is laser-induced CNV. Kind of assay: Laser-induced CNV, cross-sectional lesion area by SD-OCT. In kind it is in vivo, mice. As to conditions: 7 days after CNV induction; for Protection from laser-induced CNV (SD-OCT): intraperitoneal daily, 5 or 50 μg/kg/day, vs vehicle. As for the experimental part: as §2
Spectral domain optical coherence tomography (SD-OCT). SD-OCT was performed with a Bioptigen system at 5 and 7 days after laser photocoagulation. Mice were anesthetized with Avertin (Sigma) and positioned on a custom cassette that allowed three-dimensional free rotation for alignment of the eye for imaging. Hydration with normal saline was used to preserve corneal clarity. The B-scan were performed with 100 horizontal, raster, and consecutive B-scan lines, each one composed of 1000 A-scans. The area size was 1.4 by 1.4 mm. The software was able to generate an en face fundus image with the reflectance information obtained from the OCT sections (volume intensity projection), so that a point-to-point correlation between OCT and fundus position was possible and accurate. For evaluation of the cross-sectional size of each lesion in OCT images, the sections passing through the center of the CNV were chosen. […] We narrowed and positioned it to the level of the retinal pigment epithelium—choroid complex, so that the area of the retinal pigment epithelium—Bruch's membrane rupture was readily identifiable in the fundus image as a hyporeflective spot.^25

Assay [6] has as its system PPARγ. Put plainly: PPARγ activity in retinal nuclear extracts (ELISA-based TransAM kit). The settings on record: ω-3-fed mice, IP daily 1 mg/kg, 7 days after CNV induction. In kind it is in vivo. On the procedure:
Measurement of PPARγ activity. The retinas (n=8) of mice were pooled to reduce biological variability and were homogenized in an ice-cold hypotonic buffer (ActiveMotif) for preparation of a nuclear fraction. The nuclear extract (20 μg of protein) was assayed for PPARγ activity with the use of an ELISA-based TransAM kit (ActiveMotif).
(In general: In an ELISA, binding on a coated surface is turned into a signal by an enzyme label.)

For assay [7], the system named is CD11b. Put plainly: Flow cytometric analysis of CD11b on PBLs. In kind it is in vivo, mice. The settings on record: metabolite administered, laser-induced CNV model. On the procedure:
as §1

[8] abbreviates: ω-3 LCPUFA diet, IP daily 1 mg/kg.

On to `CCC1OC1C/C=C\C/C=C\C/C=C\C/C=C\CCCC(=O)O` (stereo not shown) [17,18-EEQ, 17,18-epoxyeicosatetraenoic acid], for which the “CD18 in peripheral blood leukocytes” value in assay [1] is on record as “suppresses”. Moreover, in assay [2], the “Protection from laser-induced CNV (choroidal flatmount)” value is “significant and dose-dependent protection”. For the same compound, in assay [3], the “Systemic leukocyte recruitment during CNV” value was “reduces” and the Leucocyte rolling entry is recorded as “decreased rolling”. Also, in assay [4], the “Vascular leakage after CNV induction” value is listed as “significantly decreased”. Further, the “Protection from laser-induced CNV (SD-OCT)” value in assay [5] was “significant and dose-dependent protection”.

Take `O=C(Nc1ccccc1)c1cc([N+](=O)[O-])ccc1Cl` [GW9662, reference compound]: the “Effect on the protective effects of ω3-LCPUFAs on CNV size (choroidal flat-mount)” value in assay [2] (setting [8]) was “significantly reduces”. Besides, the “Activity of PPARγ in the retina” value in assay [6] is “significantly reduces”. In addition, the “Effect on the protective effects of ω3-LCPUFAs on leakage” value in assay [4] (setting [8]) was “significantly reduces”. For the same compound, the “Effect on the protective effects of ω3-LCPUFAs on CNV size (SD-OCT)” value in assay [5] (setting [8]) was “significantly reduces”.

In the case of `CCCCC/C=C\C/C=C\CC1OC1C/C=C\CCCC(=O)O` (stereo not shown) [8,9-EET, reference compound], in assay [3], the Leucocyte rolling result is “increased leucocyte rolling”.

For the compound `CCCCC/C=C\C[C@H]1O[C@H]1C/C=C\C/C=C\CCCC(=O)O` [11,12-EET, reference compound], the Leucocyte rolling entry in assay [3] was “increased leucocyte rolling”.

For `CCC1OC1CC=CCC=CCC=CCC=CCC=CCCC(=O)O` (stereo not shown) [19,20-EDP, 19,20-epoxydocosapentaenoic acid], the “Protection from laser-induced CNV (choroidal flatmount)” value in assay [2] is “significant protection”. Besides, in assay [3], the “Systemic leukocyte recruitment during CNV” value is listed as “reduces” and the Leucocyte rolling entry is “decreased rolling”. In assay [7], the “CD11b in peripheral blood leukocytes” value was “suppresses”. For the same compound, in assay [4], the “Vascular leakage after CNV induction” value was “significant protection”. Besides, in assay [5], the “Protection from laser-induced CNV (SD-OCT)” value was “significant protection”.

As for `CCCCCC1OC1C/C=C\C/C=C\C/C=C\CCCC(=O)O` (stereo not shown) [14,15-EET, reference compound], in assay [3], the Leucocyte rolling entry is “increased leucocyte rolling”.
